Assay results taken from ChEMBL document CHEMBL2429841, “Effect of incorporating a thiophene tail in the scaffold of acetazolamide on the inhibition of human carbonic anhydrase isoforms I, II, IX and XII” (Bioorg Med Chem Lett, 2013).

Columns and labels:
[1] = target: Carbonic anhydrase 9 (Homo sapiens, UniProt Q16790); assay: Inhibition of human carbonic anhydrase-9 by stopped flow CO2 hydrase assay
[2] = target: Carbonic anhydrase 12 (Homo sapiens, UniProt O43570)
Carbonic anhydrase 12, sequence (O43570 whole entry): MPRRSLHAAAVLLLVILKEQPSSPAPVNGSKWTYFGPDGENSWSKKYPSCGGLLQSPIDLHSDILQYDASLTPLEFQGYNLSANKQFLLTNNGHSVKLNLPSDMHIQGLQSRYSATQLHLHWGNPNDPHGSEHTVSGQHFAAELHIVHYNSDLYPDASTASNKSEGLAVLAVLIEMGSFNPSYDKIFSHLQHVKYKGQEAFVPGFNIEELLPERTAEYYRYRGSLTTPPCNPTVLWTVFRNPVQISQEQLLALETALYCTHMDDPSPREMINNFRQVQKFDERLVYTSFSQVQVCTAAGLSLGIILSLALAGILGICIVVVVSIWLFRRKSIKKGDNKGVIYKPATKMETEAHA
Description: Inhibition of human carbonic anhydrase-12 by stopped flow CO2 hydrase assay

## NS(=O)(=O)c1ccc(NC(=O)Cc2cccs2)cc1
[1]
  Ki: 19 nM
[2]
  Ki: 21 nM

## NS(=O)(=O)c1ccc(NC(=O)Cc2ccccc2)cc1
[1]
  Ki: 84 nM
[2]
  Ki: 71 nM

## CCC[C@H](C(=O)Nc1ccc(S(N)(=O)=O)cc1)C(C)(C)C
[1]
  Ki: 96 nM
[2]
  Ki: 78 nM
